In patent publication US10508085B2, “Compounds and methods for IDO and TDO modulation, and indications therefor” (Plexxikon Inc., priority 2016, dated 2019):

Legend:
[1] = molecular target: T1, Human Indoleamine 2,3-dioxygenase (IDO) (Homo sapiens, UniProt P14902); experiment: Human IDO enzymatic assay (kynurenine level); assay type: biochemical; settings: 6 nM IDO, 10 μM L-Trp; geometric mean; read-out: IDO1 GMean: IC50 (μM) (Biochemical Assay)
T1 construct: His tag (N); made in house; host or cells: E. coli
T1 sequence (P14902 whole entry): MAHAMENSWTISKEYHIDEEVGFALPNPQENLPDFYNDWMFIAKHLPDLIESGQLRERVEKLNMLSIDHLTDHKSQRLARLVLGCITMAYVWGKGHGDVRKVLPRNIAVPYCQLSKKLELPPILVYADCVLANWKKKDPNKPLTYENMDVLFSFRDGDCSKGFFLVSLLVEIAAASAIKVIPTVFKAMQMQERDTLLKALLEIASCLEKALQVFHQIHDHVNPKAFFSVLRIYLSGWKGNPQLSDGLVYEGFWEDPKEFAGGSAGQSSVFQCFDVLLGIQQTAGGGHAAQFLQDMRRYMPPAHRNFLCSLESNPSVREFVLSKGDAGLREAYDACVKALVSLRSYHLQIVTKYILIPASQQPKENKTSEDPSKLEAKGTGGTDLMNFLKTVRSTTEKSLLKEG
Summary of the method: (§1)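 N-His human IDO (6 nM, 10 μM L-Trp, 5 μM methylene blue, 20 min) or TDO (1 nM, 350 μM L-Trp, 0.4 μM methylene blue, 70 min) run at room temp in pH 6.5 phosphate with ascorbate, catalase, Tween 20. TCA stop, 30 min 50 °C converts N-formylkynurenine to kynurenine; IC50 by nonlinear regression.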

[2] = molecular target: T2, Human Tryptophan 2,3-dioxygenase (TDO) (Homo sapiens, UniProt P48775); experiment: Human TDO enzymatic assay (kynurenine level); assay type: biochemical; settings: 1 nM TDO, 350 μM L-Trp; geometric mean; read-out: TDO GMean: IC50 (μM) (Biochemical Assay)
T2 construct: His tag (N); made in house; host or cells: E. coli
T2 sequence (P48775 whole entry): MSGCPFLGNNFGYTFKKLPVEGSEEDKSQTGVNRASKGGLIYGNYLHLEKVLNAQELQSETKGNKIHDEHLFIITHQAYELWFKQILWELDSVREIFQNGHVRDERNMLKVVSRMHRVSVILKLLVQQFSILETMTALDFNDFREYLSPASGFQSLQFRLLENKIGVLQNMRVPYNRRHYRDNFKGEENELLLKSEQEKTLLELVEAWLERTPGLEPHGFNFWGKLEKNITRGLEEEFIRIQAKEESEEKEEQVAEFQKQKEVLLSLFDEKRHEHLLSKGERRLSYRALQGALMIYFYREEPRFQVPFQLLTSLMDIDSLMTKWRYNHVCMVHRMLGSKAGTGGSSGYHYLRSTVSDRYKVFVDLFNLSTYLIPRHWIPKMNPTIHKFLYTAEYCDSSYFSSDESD
Summary of the method: as §1

[3] = molecular target: T3, human IDO (IDO1-expressing HEK293 cells) (Homo sapiens, UniProt P14902); experiment: Cell based kynurenine assay, IDO1-expressing HEK293 cell clones; settings: IDO1-expressing HEK293 cells, 24 hours incubation; geometric mean; read-out: HEK293 IDO1 Kynurenine GMean IC50 (μM) (Cellular Assay)
T3 construct: expressed in transfected cells
T3 sequence (P14902 whole entry): as the sequence (P14902 whole entry) above
Summary of the method: (§2)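 HEK293 stable clones (hIDO1 or hTDO, CMV-driven; G418-selected); 2.5×10^4 cells/well; compound serial dilution, 24 h, 37 °C, 5% CO2; supernatant kynurenine; IC50 by nonlinear fit.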

[4] = molecular target: T4, human TDO (TDO-expressing HEK293 cells) (Homo sapiens, UniProt P48775); experiment: Cell based kynurenine assay, TDO-expressing HEK293 cell clones; settings: TDO-expressing HEK293 cells, 24 hours incubation; geometric mean; read-out: HEK293 TDO Kynurenine GMean IC50 (μM) (Cellular Assay)
T4 construct: expressed in transfected cells
T4 sequence (P48775 whole entry): as the sequence (P48775 whole entry) above
Summary of the method: as §2

IC50 [1] [µM]	IC50 [2] [µM]	IC50 [3] [µM]	IC50 [4] [µM]	SMILES
0.0001 to 10	0.0001 to 10	> 10	0.0001 to 10	OC1(c2cc(Cl)cc3cn[nH]c23)C2CC3CC(C2)CC1C3 [Compound P-0380, (1R,2R,5S)-2-(5-chloro-1H-indazol-7-yl)adamantan-2-ol]
0.0001 to 10	0.0001 to 10	0.0001 to 10	0.0001 to 10	O[C@H](c1cc(Cl)cc2cn[nH]c12)C12CCC(CC1)CC2 [Compound P-0381, (S)-bicyclo[2.2.2] octan-1-yl(5-chloro-1H-indazol-7-yl)methanol]
0.0001 to 10	> 200	0.0001 to 10	> 10	O[C@@H](c1cc(Cl)cc2cn[nH]c12)C12CCC(CC1)CC2 [Compound P-0382, (R)-bicyclo[2.2.2] octan-1-yl(5-chloro-1H-indazol-7-yl)methanol]
0.0001 to 10	0.0001 to 10	0.0001 to 10	0.0001 to 10	CC(C)(C)OC(=O)N1CCC(C(C)(C)[C@H](O)c2c(F)c(Cl)cc3cn[nH]c23)CC1 [Compound P-0383, tert-butyl (S)-4-(1-(5-chloro-6-fluoro-1H-indazol-7-yl)-1-hydroxy-2-methylpropan-2-yl)piperidine-1-carboxylate]
0.0001 to 10	0.0001 to 10	> 10	> 10	CC(C)(C)OC(=O)N1CCC(C(C)(C)[C@@H](O)c2c(F)c(Cl)cc3cn[nH]c23)CC1 [Compound P-0384, tert-butyl (R)-4-(1-(5-chloro-6-fluoro-1H-indazol-7-yl)-1-hydroxy-2-methylpropan-2-yl)piperidine-1-carboxylate]
0.0001 to 10	0.0001 to 10	0.0001 to 10	0.0001 to 10	CC(C)(C1CCN(C(=O)NC(=O)c2ccccc2)CC1)C(O)c1cc(Cl)cc2cn[nH]c12 (centres unmarked) [Compound P-0385, N-benzoyl-4-(1-(5-chloro-1H-indazol-7-yl)-1-hydroxy-2-methylpropan-2-yl)piperidine-1-carboxamide]

The remaining lines, values behind:

SMILES	IC50 [1] [µM]	IC50 [2] [µM]	IC50 [3] [µM]	IC50 [4] [µM]
CC(C)CC(=O)N1CCC(C(F)(F)C(O)c2c(F)c(Cl)cc3cn[nH]c23)CC1 (centres unmarked) [Compound P-0375, 1-(4-(2-(5-chloro-6-fluoro-1H-indazol-7-yl)-1,1-difluoro-2-hydroxyethyl)piperidin-1-yl)-3-methylbutan-1-one]	0.0001 to 10	0.0001 to 10	0.0001 to 10	0.0001 to 10
COCC(=O)N1CCC(C(F)(F)C(O)c2c(F)c(Cl)cc3cn[nH]c23)CC1 (centres unmarked) [Compound P-0376, 1-(4-(2-(5-chloro-6-fluoro-1H-indazol-7-yl)-1,1-difluoro-2-hydroxyethyl)piperidin-1-yl)-2-methoxyethan-1-one]	0.0001 to 10	0.0001 to 10	0.0001 to 10	0.0001 to 10
CC(C)C(=O)N1CCC(C(F)(F)C(O)c2c(F)c(Cl)cc3cn[nH]c23)CC1 (centres unmarked) [Compound P-0377, 1-(4-(2-(5-chloro-6-fluoro-1H-indazol-7-yl)-1,1-difluoro-2-hydroxyethyl)piperidin-1-yl)-2-methylpropan-1-one]	0.0001 to 10	0.0001 to 10	0.0001 to 10	0.0001 to 10
O=C(NCC(F)(F)F)N1CCC(C(F)(F)C(O)c2c(F)c(Cl)cc3cn[nH]c23)CC1 (centres unmarked) [Compound P-0378, 4-(2-(5-chloro-6-fluoro-1H-indazol-7-yl)-1,1-difluoro-2-hydroxyethyl)-N-(2,2,2-trifluoroethyl) piperidine-1-carboxamide]	0.0001 to 10	0.0001 to 10	0.0001 to 10	0.0001 to 10
NC(=O)N1CCC(C(F)(F)C(O)c2c(F)c(Cl)cc3cn[nH]c23)CC1 (centres unmarked) [Compound P-0379, 4-(2-(5-chloro-6-fluoro-1H-indazol-7-yl)-1,1-difluoro-2-hydroxyethyl) piperidine-1-carboxamide]	0.0001 to 10	0.0001 to 10	0.0001 to 10	0.0001 to 10
